{"source": "paper PMC10712105", "about": "(Journal of Translational Medicine, 2023)", "key": {"[1]": {"design": "method as in PMID 8289200", "details": "in the presence of HSA; cited from earlier work"}, "HSA": {"test_system": "HSA", "details": "cited from earlier work"}, "SK-LMS-1": {"test_system": "SK-LMS-1", "details": "SK-LMS-1 cell line; cited from earlier work"}, "[2]": {"test_system": "SK-LMS-1 xenograft tumors", "format": "in vivo, SCID mice", "design": "Estimate of tumor volume difference vs SPESN38-8 / Estimate of tumor volume difference vs Vehicle: unit not given here", "details": "for Tumor volume, Mean / Tumor volume, Median: in mm³ (unit assumed); for Tumor volume change from Day 0, Mean / Tumor volume change from Day 0, Median: volume minus day 0 volume", "text": "SK-LMS-1 cell line (HTB-88) was purchased from ATCC. […] Equal number (12) of female and male mice were used in this experiment. […] The intended schedule for drug or vehicle treatment was weekly for 3 doses.\nA mixed linear regression model was made with tumor volume as the outcome on day 2, 6, and 9. The model tested for group differences adjusted for time, day 0 volume, and sex. There was a within animal correlation modeled using a random intercept. […] The black color columns are within group at between days, the red columns are between group at each day."}, "[3]": {"test": "Water solubility and solution stability", "format": "physicochemical", "text": "Following the formation of SPESN38 complexes, the solution was lyophilized to yield yellowish powder."}, "[4]": {"test": "Membrane dialysis SN38 release kinetics", "format": "physicochemical", "details": "in 7 h; 0.1 M NaHCO3 buffer, pH 8.6"}, "cancer cells": {"test_system": "cancer cells", "design": "method as in PMID 11489791, PMID 1651156", "details": "cited from earlier work"}, "[5]": {"details": "cited from earlier work"}, "[6]": {"test_system": "HCT-116 CRC xenograft tumors", "test": "HCT-116 model efficacy study", "details": "for tumor growth inhibition (TGI) on Day 10: IV (irinotecan 50 mg/kg, SPESN38-5 55 mg/kg), vs control group, female SCID mice", "experimental": "(§1) After growing in Eagle's Minimum Essential, HCT-116 cells were harvested by trypsinization and washed twice with PBS. HCT-116 cells (2 × 10^6 per injection) were suspended in 200 µL of a 1:1 solution of ice-cold PBS and Matrigel (Corning Incorporated, Corning, NY) solution. […] After the tumors grew to 800–1200 mm^3, they were isolated, and approximately 50 mg of non-necrotic tumor masses were subcutaneously implanted into the flank area of individual female SCID mice. […] Other doses at 75 and 50 mg/kg were tried on healthy CD-1 mice. […] Tumor volume (TV) and BW were measured three times per week or daily depending on the condition of the mouse. TV was calculated using the formula: v = 0.5 (L x W^2). Progression at the endpoint was a tumor size with diameter ≥ 20 mm or a moribund condition."}, "[7]": {"design": "method as in earlier work", "details": "irinotecan at 200 mg/kg, mice, cited from earlier work"}, "[8]": {"test": "Irinotecan IV dose tolerability", "format": "in vivo, mouse", "details": "female, mouse, in vivo; SCID mice, via IV", "experimental": "as §1"}, "SCID mice and CD-1 mice": {"test_system": "SCID mice and CD-1 mice", "test": "Irinotecan IV dose tolerability", "format": "in vivo, mouse", "experimental": "as §1"}, "[9]": {"details": "DOX 5 mg/kg qwk x 2, SPESN38-8 IV 33 mg/kg qwk x 3"}, "[10]": {"details": "Day 2, mixed linear regression model, Tukey-Kramer pairwise test"}, "[11]": {"details": "Day 6, mixed linear regression model, Tukey-Kramer pairwise test"}, "[12]": {"details": "IV, DOX 5 mg/kg, SPESN38-8 33 mg/kg, relative to control group"}, "[13]": {"details": "mixed linear regression model, Tukey-Kramer pairwise test"}}, "note": "Values joined by “and” are separate entries in the source; they are usually repeats but may differ in a detail not shown here. Identical values can stand only once. Counter-ions that a name gives are not always drawn. Like-named read-outs stand apart in the source and are kept apart here."}
{"smiles": "CC[C@@]1(O)C(=O)OCc2c1cc1n(c2=O)Cc2cc3ccccc3nc2-1", "note": "[CPT, Camptothecin]", "values": [{"measurement": "L form at the equilibrium", "setting": "[1]", "result": "< 0.5", "unit": "%"}, {"measurement": "fold higher HSA affinity for the C form over the L form", "setting": "HSA", "result": 157, "unit": "fold"}]}
{"smiles": "COc1cccc2c1C(=O)c1c(O)c3c(c(O)c1C2=O)C[C@@](O)(C(=O)CO)C[C@@H]3O[C@H]1C[C@H](N)[C@H](O)[C@H](C)O1", "note": "[DOX, doxorubicin]", "values": [{"measurement": "IC50", "setting": "SK-LMS-1", "result": 0.49, "unit": "µM"}, {"measurement": "% Tumor volume change at Day 9", "setting": "[2]; [9]", "result": "142% and 142.4%"}, {"measurement": "Mean Tumor volume at Day 9", "setting": "[2]; [9]", "result": 843.5, "unit": "mm^3"}, {"measurement": "Tumor weight on ending day, Mean", "setting": "[2]; DOX Day 9, SPESN38-8 Day 21", "result": 0.73, "unit": "g"}, {"measurement": "Tumor weight on ending day, Median", "setting": "[2]; DOX Day 9, SPESN38-8 Day 21", "result": 0.71, "unit": "g"}, {"measurement": "Initial mean Tumor volume", "setting": "[2]; Day 0, DOX 5 mg/kg qwk x 2, SPESN38-8 IV 33 mg/kg qwk x 3", "result": 334.2, "unit": "mm^3"}, {"measurement": "Tumor volume, Mean", "setting": "[2]; Day 0", "result": 334.20}, {"measurement": "Tumor volume, Median", "setting": "[2]; Day 0", "result": 343.40}, {"measurement": "Tumor volume, Mean", "setting": "[2]; Day 2", "result": 347.68}, {"measurement": "Tumor volume, Median", "setting": "[2]; Day 2", "result": 355.78}, {"measurement": "Estimate of tumor volume difference vs SPESN38-8", "setting": "[2]; [10]", "result": 42.5383}, {"measurement": "Estimate of tumor volume difference vs Vehicle", "setting": "[2]; [10]", "result": -178.73}, {"measurement": "Tumor volume change from Day 0, Mean", "setting": "[2]; Day 2", "result": 13.48}, {"measurement": "Tumor volume change from Day 0, Median", "setting": "[2]; Day 2", "result": 14.71}, {"measurement": "Tumor volume, Mean", "setting": "[2]; Day 6", "result": 495.42}, {"measurement": "Tumor volume, Median", "setting": "[2]; Day 6", "result": 464.84}, {"measurement": "Estimate of tumor volume difference vs SPESN38-8", "setting": "[2]; [11]", "result": 132.53}, {"measurement": "Estimate of tumor volume difference vs Vehicle", "setting": "[2]; [11]", "result": -258.70}, {"measurement": "Tumor volume change from Day 0, Mean", "setting": "[2]; Day 6", "result": 161.22}, {"measurement": "Tumor volume change from Day 0, Median", "setting": "[2]; Day 6", "result": 138.34}, {"measurement": "Tumor volume, Mean", "setting": "[2]; Day 9", "result": 843.52}, {"measurement": "Tumor volume, Median", "setting": "[2]; Day 9", "result": 810.34}, {"measurement": "Estimate of tumor volume difference vs SPESN38-8", "setting": "[2]; Day 9, mixed linear regression model, Tukey-Kramer pairwise test", "result": 538.49}, {"measurement": "Tumor volume change from Day 0, Mean", "setting": "[2]; Day 9", "result": 509.32}, {"measurement": "Tumor volume change from Day 0, Median", "setting": "[2]; Day 9", "result": 472.65}, {"measurement": "TGI on Day 6", "setting": "[2]; [12]", "result": "27% and 26.9%"}, {"measurement": "TGI on Day 9", "setting": "[2]; [12]", "result": "25% and 25.3%"}, {"measurement": "Estimate of tumor volume difference within group, Day 2 vs Day 6", "setting": "[2]; [13]", "result": -147.74}, {"measurement": "Estimate of tumor volume difference within group, Day 2 vs Day 9", "setting": "[2]; [13]", "result": -495.84}, {"measurement": "Estimate of tumor volume difference within group, Day 6 vs Day 9", "setting": "[2]; [13]", "result": -348.11}, {"measurement": "BW loss after 2 doses", "setting": "[2]; mouse, in vivo", "result": "> 20", "unit": "%"}]}
{"smiles": "CCc1c2c(nc3ccc(O)cc13)-c1cc3c(c(=O)n1C2)COC(=O)[C@]3(O)CC", "note": "[SN38 salt]", "values": [{"measurement": "solution stability", "setting": "[3]; under the same conditions as SPESN38 complexes", "result": "neither SN38 salt nor SN38 salt-HSA mixture is stable"}, {"measurement": "SN38 out of the membrane tubing", "setting": "[4]", "result": "> 90", "unit": "%"}]}
{"smiles": "CCc1c2c(nc3ccc(O)cc13)-c1cc3c(c(=O)n1C2)COC(=O)[C@]3(O)CC", "note": "[SN38, 7-ethyl-10-hydroxy camptothecin]", "values": [{"measurement": "water solubility", "setting": "[3]", "result": "very low solubility in water"}, {"measurement": "times more cytotoxic than irinotecan", "setting": "cancer cells", "result": "100–1000 times"}]}
{"smiles": "CCc1c2c(nc3ccc(OC(=O)N4CCC(N5CCCCC5)CC4)cc13)-c1cc3c(c(=O)n1C2)COC(=O)[C@]3(O)CC", "note": "[irinotecan]", "values": [{"measurement": "fraction of irinotecan transformed in vivo into SN38", "setting": "[5]; human setting", "result": "2–8%"}, {"measurement": "drug excreted as intact irinotecan", "setting": "[5]; in humans", "result": 55, "unit": "%"}, {"measurement": "tumor growth inhibition (TGI) on Day 10", "setting": "[6]", "result": 82, "unit": "%"}, {"measurement": "tumor growth inhibition (TGI) on Day 10", "setting": "[6]; listed as Irinotecan", "result": 82.3, "unit": "%"}, {"measurement": "Tumor weight Difference vs SPESN38-5 PO on Day 10", "setting": "[6]; IV groups on Day 21", "result": -0.6587}, {"measurement": "Tumor weight Difference vs Vehicle on Day 10", "setting": "[6]; IV groups on Day 21", "result": -0.9605}, {"measurement": "Mean % BW change at ending day", "setting": "[6]; normalized BW, ending Day 21, IV qwk x 3 (irinotecan 50 mg/kg, SPESN38-5 55 mg/kg)", "result": 90.5, "unit": "%"}, {"measurement": "AUC0-∞", "setting": "[7]; moiety Free SN38", "result": "9,940 ng x h/mL"}, {"measurement": "Cmax", "setting": "[7]; moiety Free SN38", "result": "1,125 ng/mL"}, {"measurement": "Tmax", "setting": "[7]; moiety Free SN38", "result": 31.8, "unit": "min"}, {"measurement": "AUC0-∞", "setting": "[7]; moiety Irinotecan", "result": "16,348 ng x h/mL"}, {"measurement": "Cmax", "setting": "[7]; moiety Irinotecan", "result": "6,571 ng/mL"}, {"measurement": "Tmax", "setting": "[7]; moiety Irinotecan", "result": 17.4, "unit": "min"}, {"measurement": "AUC0-∞", "setting": "[7]; moiety SN38-G", "result": "15,493 ng x h/mL"}, {"measurement": "Cmax", "setting": "[7]; moiety SN38-G", "result": "2,620 ng/mL"}, {"measurement": "Tmax", "setting": "[7]; moiety SN38-G", "result": 36, "unit": "min"}, {"measurement": "MTD", "setting": "[8]", "result": 50, "unit": "mg/kg"}, {"measurement": "Tolerability", "setting": "SCID mice and CD-1 mice; 50 mg/kg IV, 2 healthy CD-1 mice", "result": "safe"}, {"measurement": "Mortality", "setting": "SCID mice and CD-1 mice; 75 mg/kg IV, healthy CD-1 mice", "result": "died instantly"}, {"measurement": "Mortality", "setting": "SCID mice and CD-1 mice; 100 mg/kg IV, 2 SCID mice bearing HCT-116", "result": "both died immediately"}]}
